Patent publication US20230085945A1, “ORTHOGONAL SAFETY SWITCHES TO ELIMINATE GENETICALLY ENGINEERED CELLS” (The Board of Trustees of the Leland Stanford Junior …, priority 2020, published 2023)

How the values were obtained:
[1] = test system: NANOG^iCasp9-YFP hPSCs transplanted subcutaneously (teratomas); assay: In vivo teratoma formation after AP20 pre-treatment of hPSCs (bioluminescent imaging); parameters: species or system NOD-SCID Il2rg^−/− mice; conditions: 5×10^5 hPSCs pre-treated with 1 nM AP20 for 24 hours, subcutaneous transplantation
Method: FIG. 3: Implementation of the NANOG^iCasp9-YFP safety switch. A) Schema depicting how drug AP20187 induces dimerization of Caspase9 in undifferentiated NANOG^iCasp9-YFP hESCs, subsequently triggering cell death (top left). NANOG^iCasp9-YFP hESCs were treated for 24 hours with increasing concentrations of AP20187. AP20187 was withdrawn, and cultures were further grown in mTeSR1 to allow any surviving hESCs to grow; any surviving colonies were counted 1 week later (top right). Alkaline phosphatase staining of whole wells of a 12-well plate after 24-hour treatment with AP20187 (bottom). […] Bioluminescent imaging of mice occurred weekly for 5 weeks with no transplant control (NTC) animals included for relative luminescence normalization. Total flux (photons/sec) was measured for each animal and averaged. […] The percentage of surviving cells was calculated relative to untreated controls. […]
Given that very small numbers of hPSCs (10,000) are sufficient to form teratomas in vivo, we tested the lower bounds of this system to test whether any rare hPSCs survived drug treatment and whether they could form teratomas. […] We used bioluminescent imaging (using the AkaLuciferase system) to determine if micro-teratomas might form, rather than visual inspection of subcutaneous nodules, because bioluminescent imaging is more sensitive and quantitative. […]

[2] = test system: NANOG^iCasp9-YFP;ACTB^HSV-TK-mPlum hPSCs transplanted subcutaneously; assay: Teratoma formation after AP20 pre-treatment of dual-safeguard hPSCs; assay type: in vivo, NOD-SCID Il2rg^−/− mice; conditions: pre-treatment with 1 nM AP20 before transplantation
Method: FIG. 5: Implementation of the ACTB^TK-mPlum safety switch. A) NANOG^iCasp9-YFP;ACTB^TK-mPlum hESCs were treated with ganciclovir (or left untreated) for 24 hours, and subsequently ganciclovir was withdrawn and hESCs were cultured for 1 week in mTeSR1 to detect any surviving cells and to allow them to regrow. […] N.D.=not detected. B) NANOG^iCasp9-YFP;ACTB^TK-mPlum hESCs were differentiated into day 6 liver, sclerotome and neural progenitors and treated with ganciclovir at the indicated doses for the last 24 hours of differentiation. Cell survival was analyzed by counting at day 6 of differentiation. C) 10^6 NANOG^iCasp9-YFP; ACTB^TK-mPlum hESCs engineered to express CAG-AkaLuciferase were treated with control media or 1 nM AP20187 for 24 hours, and then subcutaneously transplanted into the right and left dorsal flanks of NOD-SCID Il2rg^−/− mice (10^6 cells per flank). […] Total flux (photons/sec) was measured for each animal and were averaged.
In vivo teratoma formation. […] Teratoma growth was monitored throughout the duration of the experiment via visual inspection and bioluminescent imaging.
Bioluminescent imaging. […] Subsequent image analysis was done in Aura with regions of interest (ROIs) drawn for each mouse to calculate Total Flux (photons/sec) in order to quantify teratoma growth over time.

With CC[C@H](C(=O)N1CCCC[C@H]1C(=O)O[C@H](CCc1ccc(OC)c(OC)c1)c1cccc(OCC(=O)NCC(CNC(=O)COc2cccc([C@@H](CCc3ccc(OC)c(OC)c3)OC(=O)[C@@H]3CCCCN3C(=O)[C@@H](CC)c3cc(OC)c(OC)c(OC)c3)c2)CN(C)C)c1)c1cc(OC)c(OC)c(OC)c1 [AP20] the “mice that formed teratomas” value [1] was 0/14 and the “teratoma formation in vivo” value [2] was “prevented them from forming teratomas in vivo”.
